Measurements: ChEMBL document CHEMBL3885881, “DrugMatrix”

Species: Rattus norvegicus
Experiment: DrugMatrix - Regimen: Daily Repeat
Format: toxicity, organism-based, Sprague-Dawley
Parameters: regimen Daily Repeat, gender Male, age 6-8 weeks
Settings: in vivo, po, route oral GAVAGE, vehicle .5 % CMC; for ABSOLUTE BASOPHIL / ABSOLUTE EOSINOPHIL / ABSOLUTE LYMPHOCYTE / ABSOLUTE MONOCYTE / ABSOLUTE SEGMENTED NEUTROPHIL / BASOPHIL / EOSINOPHIL / ERYTHROCYTE COUNT / HEMATOCRIT / HEMOGLOBIN / LEUKOCYTE COUNT / LYMPHOCYTE / MEAN CORPUSCULAR HEMOGLOBIN / MEAN CORPUSCULAR HEMOGLOBIN CONCENTRATION / MEAN CORPUSCULAR VOLUME / MONOCYTE / NEUTROPHIL / NUCLEATED RED BLOOD CELLS / PLATELET COUNT: tissue Blood; for ALANINE AMINOTRANSFERASE / ALBUMIN / ALKALINE PHOSPHATASE / ASPARTATE AMINOTRANSFERASE / BLOOD UREA NITROGEN / CARBON DIOXIDE / CHLORIDE / CHOLESTEROL / CREATINE PHOSPHOKINASE / CREATININE / GLUCOSE / LACTATE DEHYDROGENASE / LIPASE / PHOSPHORUS / POTASSIUM / SODIUM / TOTAL BILIRUBIN / TOTAL PROTEIN / URIC ACID: tissue Plasma
[1] = 20 mg/kg, 120 h, dose level Low, time 5 day
[2] = 1600 mg/kg, 72 h, dose level High, time 3 day
[3] = 1600 mg/kg, 120 h, dose level High, time 5 day

Compound: NC(=O)N1c2ccccc2CC(=O)c2ccccc21 [OXCARBAZEPINE]
- ABSOLUTE BASOPHIL [1]: 0 CELLS/uL
- ABSOLUTE EOSINOPHIL [1]: 112 CELLS/uL
- ABSOLUTE LYMPHOCYTE [1]: 14390.67 CELLS/uL
- ABSOLUTE MONOCYTE [1]: 0 CELLS/uL
- ABSOLUTE SEGMENTED NEUTROPHIL [1]: 964 CELLS/uL
- BASOPHIL [1]: 0%
- EOSINOPHIL [1]: 0.67%
- ERYTHROCYTE COUNT [1]: 5.76 x10E6/uL
- HEMATOCRIT [1]: 35.97%
- HEMOGLOBIN [1]: 14.53 G/DL
- LEUKOCYTE COUNT [1]: 15.47 x10E3/uL
- LYMPHOCYTE [1]: 93.33%
- MEAN CORPUSCULAR HEMOGLOBIN [1]: 25.2 pg
- MEAN CORPUSCULAR HEMOGLOBIN CONCENTRATION [1]: 40.4 G/DL
- MEAN CORPUSCULAR VOLUME [1]: 62.37 fL
- MONOCYTE [1]: 0%
- NEUTROPHIL [1]: 6%
- NUCLEATED RED BLOOD CELLS [1]: 0.33 /100WBC
- PLATELET COUNT [1]: 1403.33 x10E3/uL
- ALANINE AMINOTRANSFERASE [1]: 47.67 u/L
- ALBUMIN [1]: 4.37 G/DL
- ALKALINE PHOSPHATASE [1]: 374.67 u/L
- ASPARTATE AMINOTRANSFERASE [1]: 83.33 u/L
- BLOOD UREA NITROGEN [1]: 17 mg/dL
- CARBON DIOXIDE [1]: 26.67 mmol/L
- CHLORIDE [1]: 102.33 MEQ/L
- CHOLESTEROL [1]: 67.67 mg/dL
- CREATINE PHOSPHOKINASE [1]: 246.33 u/L
- CREATININE [1]: 0.16 mg/dL
- GLUCOSE [1]: 163.33 mg/dL
- LACTATE DEHYDROGENASE [1]: 115.33 u/L
- LIPASE [1]: 8.67 u/L
- PHOSPHORUS [1]: 12.83 mg/dL
- POTASSIUM [1]: 6.85 MEQ/L
- SODIUM [1]: 146.7 MEQ/L
- TOTAL BILIRUBIN [1]: 0.17 mg/dL
- TOTAL PROTEIN [1]: 6.17 G/DL
- URIC ACID [1]: 2.23 mg/dL
- ABSOLUTE BASOPHIL [2]: 0 CELLS/uL
- ABSOLUTE EOSINOPHIL [2]: 0 CELLS/uL
- ABSOLUTE LYMPHOCYTE [2]: 14109.67 CELLS/uL
- ABSOLUTE MONOCYTE [2]: 56.33 CELLS/uL
- ABSOLUTE SEGMENTED NEUTROPHIL [2]: 1034 CELLS/uL
- BASOPHIL [2]: 0%
- EOSINOPHIL [2]: 0%
- ERYTHROCYTE COUNT [2]: 6.38 x10E6/uL
- HEMATOCRIT [2]: 39.5%
- HEMOGLOBIN [2]: 15.47 G/DL
- LEUKOCYTE COUNT [2]: 15.2 x10E3/uL
- LYMPHOCYTE [2]: 93.33%
- MEAN CORPUSCULAR HEMOGLOBIN [2]: 24.27 pg
- MEAN CORPUSCULAR HEMOGLOBIN CONCENTRATION [2]: 39.2 G/DL
- MEAN CORPUSCULAR VOLUME [2]: 61.93 fL
- MONOCYTE [2]: 0.33%
- NEUTROPHIL [2]: 6.33%
- NUCLEATED RED BLOOD CELLS [2]: 0 /100WBC
- PLATELET COUNT [2]: 1432 x10E3/uL
- ALANINE AMINOTRANSFERASE [2]: 82.67 u/L
- ALBUMIN [2]: 4.43 G/DL
- ALKALINE PHOSPHATASE [2]: 485.33 u/L
- ASPARTATE AMINOTRANSFERASE [2]: 91 u/L
- BLOOD UREA NITROGEN [2]: 16.33 mg/dL
- CARBON DIOXIDE [2]: 31 mmol/L
- CHLORIDE [2]: 101 MEQ/L
- CHOLESTEROL [2]: 73 mg/dL
- CREATINE PHOSPHOKINASE [2]: 195 u/L
- CREATININE [2]: 0.2 mg/dL
- GLUCOSE [2]: 116 mg/dL
- LACTATE DEHYDROGENASE [2]: 266 u/L
- LIPASE [2]: 11 u/L
- PHOSPHORUS [2]: 10.13 mg/dL
- POTASSIUM [2]: 6.83 MEQ/L
- SODIUM [2]: 145.67 MEQ/L
- TOTAL BILIRUBIN [2]: 0.17 mg/dL
- TOTAL PROTEIN [2]: 5.8 G/DL
- URIC ACID [2]: 1.43 mg/dL
- ABSOLUTE BASOPHIL [3]: 0 CELLS/uL
- ABSOLUTE EOSINOPHIL [3]: 0 CELLS/uL
- ABSOLUTE LYMPHOCYTE [3]: 15797.33 CELLS/uL
- ABSOLUTE MONOCYTE [3]: 212.67 CELLS/uL
- ABSOLUTE SEGMENTED NEUTROPHIL [3]: 2156.67 CELLS/uL
- BASOPHIL [3]: 0%
- EOSINOPHIL [3]: 0%
- ERYTHROCYTE COUNT [3]: 5.81 x10E6/uL
- HEMATOCRIT [3]: 36.23%
- HEMOGLOBIN [3]: 14.8 G/DL
- LEUKOCYTE COUNT [3]: 18.17 x10E3/uL
- LYMPHOCYTE [3]: 87.33%
- MEAN CORPUSCULAR HEMOGLOBIN [3]: 25.47 pg
- MEAN CORPUSCULAR HEMOGLOBIN CONCENTRATION [3]: 40.83 G/DL
- MEAN CORPUSCULAR VOLUME [3]: 62.33 fL
- MONOCYTE [3]: 1%
- NEUTROPHIL [3]: 11.67%
- NUCLEATED RED BLOOD CELLS [3]: 0 /100WBC
- PLATELET COUNT [3]: 1349.67 x10E3/uL
- ALANINE AMINOTRANSFERASE [3]: 60.67 u/L
- ALBUMIN [3]: 4.5 G/DL
- ALKALINE PHOSPHATASE [3]: 338.67 u/L
- ASPARTATE AMINOTRANSFERASE [3]: 86.33 u/L
- BLOOD UREA NITROGEN [3]: 17.33 mg/dL
- CARBON DIOXIDE [3]: 23.33 mmol/L
- CHLORIDE [3]: 99 MEQ/L
- CHOLESTEROL [3]: 93.67 mg/dL
- CREATINE PHOSPHOKINASE [3]: 336.33 u/L
- CREATININE [3]: 0.28 mg/dL
- GLUCOSE [3]: 123 mg/dL
- LACTATE DEHYDROGENASE [3]: 512.67 u/L
- LIPASE [3]: 13 u/L
- PHOSPHORUS [3]: 13.6 mg/dL
- POTASSIUM [3]: 7.68 MEQ/L
- SODIUM [3]: 142.17 MEQ/L
- TOTAL BILIRUBIN [3]: 0.23 mg/dL
- TOTAL PROTEIN [3]: 6.43 G/DL
- URIC ACID [3]: 2.07 mg/dL
